# Measured values taken from US9056152B2, “Medical device with crystalline drug coating” (Boston Scientific Scimed, Inc., priority 2011, dated 2015).
# Legend:
# [1] = Porcine animal study of everolimus coated stents: drug in artery tissue (LC/MS) and drug remaining on stent (HPLC); format: in vivo, common swine; settings: explanted at 28 days; for Tissue content at 28 days: 130 μg on 12 mm stents implanted in coronary and internal thoracic arteries of swine, drug in arteries by LC/MS; for % drug left on stent at 28 days: 130 μg on 12 mm stents implanted in swine arteries, drug remaining on stent by HPLC
# Experimental: Stents coated with either crystalline or amorphous everolimus (130 μg on 12 mm stents) were implanted in the coronary arteries and internal thoracic arteries of common swine. The stented vessels were explanted after 3 hrs, 24 hrs, 7, 14 and 28 days. N=3 stents per timepoint were used. After sacrifice the stents were removed from the arteries and the amount of drug in the arteries was determined by LC/MS. The amount of drug remaining on the stent was determined by HPLC.
# [2] = Everolimus solubility in water @ 37° C., amorphous vs crystalline form; format: physicochemical; settings: data shown in FIG. 1
# Experimental: FIG. 1 is a graph comparing everolimus solubility data in water @ 37° C. for amorphous and crystalline forms.
# [3] = listed as crystalline everolimus
Tissue content at 28 days [1] [ng/mg],Tissue content at 28 days ([1]; listed as amorphous everolimus),% drug left on stent at 28 days [1] [%],% drug left on stent at 28 days ([1]; listed as amorphous drug),"Tissue content at 28 days [1, 3] [ng/mg]","% drug left on stent at 28 days [1, 3] [%]",SMILES,solubility in water [2]
0.04,essentially no drug in the tissue,0,no drug remaining on the stents,,,"CO[C@H]1C[C@@H]2CC[C@@H](C)[C@@](O)(O2)C(=O)C(=O)N2CCCC[C@H]2C(=O)O[C@H]([C@H](C)C[C@@H]2CC[C@@H](OCCO)[C@H](OC)C2)CC(=O)[C@H](C)/C=C(\C)[C@@H](O)[C@@H](OC)C(=O)[C@H](C)C[C@H](C)/C=C/C=C/C=C/1C [Amorphous Everolimus, 40-O-(2-Hydroxyethyl)rapamycin]",
6.1,,25.8,,6,25,"CO[C@H]1C[C@@H]2CC[C@@H](C)[C@@](O)(O2)C(=O)C(=O)N2CCCC[C@H]2C(=O)O[C@H]([C@H](C)C[C@@H]2CC[C@@H](OCCO)[C@H](OC)C2)CC(=O)[C@H](C)/C=C(\C)[C@@H](O)[C@@H](OC)C(=O)[C@H](C)C[C@H](C)/C=C/C=C/C=C/1C [Crystalline Everolimus, 40-O-(2-Hydroxyethyl)rapamycin]",much lower solubility in water than amorphous everolimus
